Like-named read-outs stand apart in the source and are kept apart here.
Columns and labels:
[1] = Plasma concentrations of ayahuasca compounds and metabolites after oral ayahuasca (LC/MS/MS); assay type: in vivo, human; parameters: AUC (mean ± sd): unit not given here; conditions: for Detection in plasma samples: any plasma sample after oral ayahuasca; for Cmax / Tmax: both sexes, human, in vivo; for Cmax: po
Description: A sample of six liters of "Hoasca" was donated by the União do Vegetal (UDV) church in Brazil for the specific purpose of use in this study. Quantification of the main compounds in the brew was done with liquid chromatography-electrospray ionization-tandem mass spectrometry (LC/MS/MS). The screening included the following compounds: DMT, DMT‐N‐oxide (DMT-NO), N‐methyltryptamine (NMT), indoleacetic acid (IAA), 5‐hydroxy‐DMT (5-OH-DMT, or bufotenin), 5‐methoxy‐DMT (5-MeO-DMT), Harmine, Harmol, Harmaline, Harmalol, THH, 7‐hydroxy‐tetrahydroharmine (THH-OH), and 2‐methyl‐tetrahydro‐beta‐carboline (2-MTHBC). The original liquid volume was then reduced to 50% using a rotary evaporator to decrease the amount of liquid intake.
Blood was collected in sterile EDTA containing tubes. Ten blood samples (3 mL each) were collected every 25 minutes, starting 25 minutes before ayahuasca ingestion and ending 200 minutes after ingestion (in a total of ten samples for each individual). Blood was collected by a professional nurse, with a catheter that remained in place during the entire time of the study. Each tube was carefully and slowly turned upside-down three times and then stored at 0°C until all ten samples were collected. Blood samples were then centrifuged at 2000 rpm for 10 min at 4°C and the resulting plasma immediately collected and frozen at -80°C. The frozen plasma samples were stored at -80°C until shipped on dry ice to USA for analysis according to [31]. Compounds included in this screening were DMT, DMT-NO, NMT, IAA, 5-OH-DMT (bufotenin), 5-MeO-DMT, Harmine, Harmol, Harmaline, Harmalol, THH, THH-OH and 2-MTHBC.
Two volunteers opted out of blood collection, and data from one volunteer was discarded due to high hemolysis in the blood samples. Therefore data were available from 16 volunteers. Maximum plasma Concentration (Cmax), Time for maximum plasma concentration (Tmax) and area under the curve (AUC) of ten identified compounds are summarized in Table 2. […] No significant differences were found between men and women for any of the identified compounds in blood. […] There were no significant correlations between time to vomit and Cmax or AUC.

5HT-2A receptors = conditions: cited from earlier work
human subjects = conditions: cited from earlier work
healthy volunteers = experiment: Association between plasma concentration and EEG spectral changes (generalized linear models); assay type: in vivo, human; conditions: for Clusters between plasma concentration and EEG spectra: delta, theta and beta frequency bands; for Cohen's d, plasma concentration vs alpha band: left frontal electrodes
Description: Relationships between plasma concentration of identified compounds and spectral changes in the six frequency bands evaluated were calculated by fitting generalized linear models (glmfit function in MATLAB) for each compound and frequency band. This analysis was followed by the non-parametric cluster based correction with 5000 permutations.
Results were considered statistically significant when p <0.05. Effect sizes are also reported, using Partial eta squared (partial η^2) for the main frequency clusters and Cohen’s d for the generalized linear models.

MAO-A = tested on: MAO-A; parameters: method as in PMID 19879939; conditions: cited from earlier work
[2] = cited from earlier work
[3] = plasma, 16 volunteers, oral ayahuasca, sampling to 200 min, read-out: Cmax (mean ± sd)
[4] = from ayahuasca ingestion, group average curve, read-out: Time of peak plasma level in the group average (converted)
[5] = plasma, 16 volunteers, oral ayahuasca, read-out: Tmax (mean ± sd) (converted)
[6] = plasma, 16 volunteers, oral ayahuasca
[7] = left centro-parieto-occipital electrodes
[8] = left parieto-occipital electrodes
[9] = one large widespread bilateral cluster
[10] = plasma, 16 volunteers, oral ayahuasca, sampling to 200 min
[11] = one right central electrode (C6)
[12] = bilateral parieto-occipital electrodes
[13] = plasma, 16 volunteers, oral ayahuasca, read-out: Cmax (min—max)
[14] = left fronto-central electrodes (F7 and FC5)
[15] = left fronto-temporal electrodes

## COc1ccc2[nH]cc(CCN(C)C)c2c1 [5-MeO-DMT, 5‐methoxy‐DMT]
[1]
  Detection in plasma samples: never detected

## COc1ccc2c(c1)[nH]c1c(C)nccc12 [Harmine]
5HT-2A receptors
  Affinity for 5HT-2A receptors: moderate affinity
Human subjects; 120 mg orally
  Effects in humans: barely-perceptible sedative effects
Human subjects; 10 to 20 mg/kg i.m.
  Effects in humans: effects qualitatively similar to LSD or mescaline
Human subjects; i.v.
  Psychoactive dose: ≥ 200 mg
[1]; [3]
  Cmax: 110 ± 138 ng/mL
[1]; [4]
  Tmax: 0.833 h
[1]; [5]
  Tmax: 2.5 h
[1]; [6]
  AUC (min—max): 21.37 to 2325.28 g·min/mL
Healthy volunteers
  Clusters between plasma concentration and EEG spectra: did not show any significant clusters
Healthy volunteers; left centro-frontal electrodes (F7, FC5, C5 and C3)
  Cohen's d, plasma concentration vs slow-gamma power increase: 0.2028
Healthy volunteers; [7]
  Cohen's d, plasma concentration vs alpha band power decrease: 0.0297
Healthy volunteers; [8]
  Cohen's d, plasma concentration vs slow-gamma power increase: 0.1797
Healthy volunteers; [9]
  Cohen's d, plasma concentration vs fast-gamma power increase: 0.0312
Healthy volunteers; right frontal electrodes
  Cohen's d, plasma concentration vs slow-gamma power increase: 0.0024
Healthy volunteers; right parietal electrodes
  Cohen's d, plasma concentration vs slow-gamma power increase: 0.1208
MAO-A
  Potency at inhibiting MAO-A relative to MAO-B: 10,000 fold

## CC1NCCc2c1[nH]c1cc(O)ccc21 (centres unmarked) [THH-OH, 7‐hydroxy‐tetrahydroharmine]
[1]; [6]
  AUC (min—max): 0.00 to 284.32 g·min/mL
  Cmax (min—max): 0.00 to 111.01 ng/mL
  Tmax (mean ± sd): 1.994 ± 0.8978 h
[1]; [10]
  Cmax (mean ± sd): 22.58 ± 26.76 ng/mL
Healthy volunteers
  Clusters between plasma concentration and alpha band: No significant clusters
Healthy volunteers; one left frontal electrode (F7)
  Cohen's d, plasma concentration vs delta band power increase: 0.2644
Healthy volunteers; [11]
  Cohen's d, plasma concentration vs delta band power increase: 0.0269
  Cohen's d, plasma concentration vs theta band power increase: 0.2630
Healthy volunteers; slow-gamma band
  Clusters between plasma concentration and slow-gamma frequency band: No significant clusters

## C[N+](C)([O-])CCc1c[nH]c2ccccc12 [DMT-NO, DMT‐N‐oxide]
[1]; [6]
  AUC (mean ± sd): 60.37 ± 57.60
  AUC (min—max): 5.21 to 191.29 g·min/mL
  Cmax (min—max): 1.58 to 40.60 ng/mL
  Tmax (mean ± sd): 1.849 ± 0.6267 h
[1]; [10]
  Cmax (mean ± sd): 14.42 ± 12.50 ng/mL
Healthy volunteers
  Clusters between plasma concentration and beta band: No significant clusters
  Clusters between plasma concentration and delta band: not significant
Healthy volunteers; [12]
  Cohen's d, plasma concentration vs fast-gamma power increase: 0.0003
Healthy volunteers; left centro-frontal electrodes
  Cohen's d, plasma concentration vs fast-gamma power increase: 0.1917
Healthy volunteers; left centro-parieto-occipital extending to right parietal electrodes
  Cohen's d, plasma concentration vs slow-gamma power increase: 0.0593
Healthy volunteers; left centro-parieto-occipital extending to some left frontal electrodes
  Cohen's d, plasma concentration vs alpha band power decrease: 0.0610
Healthy volunteers; right centro-temporal electrodes (C6, T8 and TP8)
  Cohen's d, plasma concentration vs slow-gamma power increase: 0.0052
Healthy volunteers; right centro-temporo-frontal electrodes
  Cohen's d, plasma concentration vs fast-gamma power increase: 0.0269
Healthy volunteers; right frontal electrodes
  Cohen's d, plasma concentration vs slow-gamma power increase: 0.0061
Healthy volunteers; right fronto-temporal electrodes (FC6, FT8 and FT10)
  Cohen's d, plasma concentration vs alpha band power decrease: 0.1341

## CN(C)CCc1c[nH]c2ccc(O)cc12 [5-OH-DMT, 5‐hydroxy‐DMT]
[1]
  Detection in plasma samples: never detected

## CC1=NCCc2c1[nH]c1cc(O)ccc21 [Harmalol]
[1]; [3]
  Cmax: 17.2 ± 13.6 ng/mL
[1]; [13]
  Cmax: 3.11 to 48.5 ng/mL
[1]; [5]
  Tmax: 2.08 h
[1]; [6]
  AUC (min—max): 9.91 to 204.99 g·min/mL
Healthy volunteers
  Clusters between plasma concentration and EEG spectra: did not show any significant clusters
Healthy volunteers; left centro-parietal electrodes
  Cohen's d, plasma concentration vs alpha band power decrease: 0.0673
Healthy volunteers; [14]
  Cohen's d, plasma concentration vs slow-gamma power increase: 0.0707
Healthy volunteers; [15]
  Cohen's d, plasma concentration vs fast-gamma power increase: 0.1479
Healthy volunteers; [8]
  Cohen's d, plasma concentration vs alpha band power decrease: 0.1056
  Cohen's d, plasma concentration vs slow-gamma power increase: 0.0542
Healthy volunteers; right frontal electrodes
  Cohen's d, plasma concentration vs fast-gamma power increase: 0.0785
  Cohen's d, plasma concentration vs slow-gamma power increase: 0.001

## COc1ccc2c3c([nH]c2c1)[C@@H](C)NCC3 [THH, tetrahydroharmine]
5HT-2A receptors
  Affinity for 5HT-2A receptors: moderate affinity
[2]; after ingestion of ayahuasca
  Recovery in 24 h urine as THH and THH-OH: 9%
[2]
  Half-life: ~9 h
[1]; from ayahuasca ingestion, group average curve
  Time to reach plateau of plasma level in the group average: 150 min
[1]; [6]
  AUC (mean ± sd): 1262.09 ± 1270.39
  AUC (min—max): 75.01 to 3762.73 g·min/mL
  Cmax (min—max): 22.62 to 895.70 ng/mL
  Tmax (mean ± sd): 3.1772 ± 0.7117 h
[1]; [10]
  Cmax (mean ± sd): 328.76 ± 324.86 ng/mL
Healthy volunteers; bilateral parieto-occipital cluster
  Cohen's d, plasma concentration vs slow-gamma power increase: 0.0656
Healthy volunteers
  Clusters between plasma concentration and EEG spectra: did not show any significant clusters
Healthy volunteers; left fronto-centro-parieto-occipital cluster extending to some right centro-parietal electrodes
  Cohen's d, plasma concentration vs alpha band power decrease: 0.0044
Healthy volunteers; left fronto-temporo-central electrodes
  Cohen's d, plasma concentration vs slow-gamma power increase: 0.0795
Healthy volunteers; [9]
  Cohen's d, plasma concentration vs fast-gamma power increase: 0.0501
Healthy volunteers; right frontal electrodes
  Cohen's d, plasma concentration vs slow-gamma power increase: 0.0366

## CN1CCc2c([nH]c3ccccc23)C1 [2-MTHBC, 2‐methyl‐tetrahydro‐beta‐carboline]
[1]
  Detection in plasma samples: never detected

## Cc1[nH]ccc2c1[nH]c1cc(=O)ccc12 [Harmol]
[1]; [3]
  Cmax: 85 ± 93.6 ng/mL
[1]; [13]
  Cmax: < 319 ng/mL
[1]; [5]
  Tmax: 2.47 h
[1]; [6]
  AUC (min—max): 0.00 to 1550.35 g·min/mL
Healthy volunteers
  Clusters between plasma concentration and EEG spectra: did not show any significant clusters
  Cohen's d, plasma concentration vs alpha band: 0.3029
Healthy volunteers; [7]
  Cohen's d, plasma concentration vs alpha band power decrease: 0.0556
Healthy volunteers; [14]
  Cohen's d, plasma concentration vs slow-gamma power increase: 0.1250
Healthy volunteers; [8]
  Cohen's d, plasma concentration vs slow-gamma power increase: 0.2921
Healthy volunteers; [9]
  Cohen's d, plasma concentration vs fast-gamma power increase: 0.0463
Healthy volunteers; right frontal electrodes
  Cohen's d, plasma concentration vs slow-gamma power increase: 0.2747
Healthy volunteers; right parietal electrodes
  Cohen's d, plasma concentration vs slow-gamma power increase: 0.0941

## CN(C)CCc1c[nH]c2ccccc12 [DMT, N,N-dimethyltryptamine]
[1]; [3]
  Cmax: 25.4 ± 16.8 ng/mL
[1]; [13]
  Cmax: 2.49 to 65.9 ng/mL
[1]; [4]
  Tmax: 1.25 h
[1]; [5]
  Tmax: 2.21 h
[1]; [6]
  AUC (min—max): 9.52 to 219.10 g·min/mL
Healthy volunteers; bilateral temporo-parieto-occipital electrodes
  Cohen's d, plasma concentration vs fast-gamma power increase: 0.0309
Healthy volunteers; [7]
  Cohen's d, plasma concentration vs alpha band power decrease: 0.0822
  Cohen's d, plasma concentration vs slow-gamma power increase: 0.0125
Healthy volunteers; [14]
  Cohen's d, plasma concentration vs beta power increase: 0.1131
Healthy volunteers; [15]
  Cohen's d, plasma concentration vs fast-gamma power increase: 0.0193
  Cohen's d, plasma concentration vs slow-gamma power increase: 0.0966
Healthy volunteers; left fronto-temporal electrodes (FT9, F7 and FT7)
  Cohen's d, plasma concentration vs delta band increase: 0.2962
Healthy volunteers; right frontal electrodes
  Cohen's d, plasma concentration vs fast-gamma power increase: 0.1366
  Cohen's d, plasma concentration vs slow-gamma power increase: 0.0161
Healthy volunteers; right frontal electrodes (AF4 and F2)
  Cohen's d, plasma concentration vs delta band increase: 0.2100

## CNCCc1c[nH]c2ccccc12 [NMT, N‐methyltryptamine]
[1]; [3]
  Cmax: 3.1 ± 2.12 ng/mL
[1]; [13]
  Cmax: 0.57 to 7.56 ng/mL
[1]; [5]
  Tmax: 2.03 h
[1]; [6]
  AUC (min—max): 1.52 to 21.69 g·min/mL
Healthy volunteers
  Clusters between plasma concentration and alpha band: No significant clusters
  Clusters between plasma concentration and delta band: not significant
Healthy volunteers; bilateral frontal electrodes
  Cohen's d, plasma concentration vs slow-gamma power increase: 0.0822
Healthy volunteers; bilateral fronto-central electrodes
  Cohen's d, plasma concentration vs fast-gamma power increase: 0.0290
Healthy volunteers; [12]
  Cohen's d, plasma concentration vs fast-gamma power increase: 0.0911
Healthy volunteers; left frontal electrodes (F7, AF7, AF3, AFz)
  Cohen's d, plasma concentration vs beta power increase: 0.0863
Healthy volunteers; occipital electrodes (O1, Oz and O2)
  Cohen's d, plasma concentration vs slow-gamma power increase: 0.2579
Healthy volunteers; right parietal electrodes
  Cohen's d, plasma concentration vs slow-gamma power increase: 0.1538

## O=C(O)Cc1c[nH]c2ccccc12 [IAA, indoleacetic acid]
[1]; [6]
  AUC (min—max): 1237.81 to 7726.25 g·min/mL
  Cmax (min—max): 61.35 to 1674.57 ng/mL
  Tmax (mean ± sd): 2.9167 ± 0.6632 h
[1]; [10]
  Cmax (mean ± sd): 717.72 ± 454.50 ng/mL
Healthy volunteers
  Clusters between plasma concentration and beta band: No significant clusters
  Clusters between plasma concentration and delta band: not significant
  Cohen's d, plasma concentration vs alpha band: 0.2888
Healthy volunteers; right centro-frontal electrodes (F2, FCz, FC2, FC4)
  Cohen's d, plasma concentration vs slow-gamma: 0.0052
Healthy volunteers; right frontal electrodes
  Cohen's d, plasma concentration vs fast-gamma power increase: 0.0737
Healthy volunteers; right parietal electrodes (CP2, Pz, P2, P4)
  Cohen's d, plasma concentration vs fast-gamma: 0.1428
